# Results as given in US8242240B2, “Anti-inflammatory compounds and uses thereof” (Yale University, priority 2000, dated 2012).
# Where “and” joins values, the source holds several entries; their conditions need not be identical. Equal entries are not always repeated. [ ]: non-standard residue; d: D form.
# Assays:
# [1] = system: mice (zymosan-induced peritonitis); assay: Zymosan-induced peritonitis in mice; format: in vivo, mice (C57BL/6NCR); conditions: dexamethasone 100 mg/ml i.p. with zymosan
# Method: In a second model, peritonitis was induced in mice by intraperitoneal (i.p.) injection of zymosan either alone or in combination with dexamethasone or the NBD peptides. For zymosan-induced peritonitis, measurement of peritoneal exudates and inflammatory cell collections from replicate groups of age and sex matched mice (C57BL/6NCR) were performed as previously described (Getting et al., (1998) Immunology 95, 625-630). Groups of animals were injected concomitantly with one ml zymosan (1 mg/ml) and either dexamethasone (100 mg/ml) or the NBD peptides (200 mg/ml). The concentration of NOX (nitrate plus nitrite) present in the inflammatory exudates was measured using a colorimetric assay kit (Alexis Corporation) according to the manufacturers protocol.
# [2] = system: mice (PMA-induced ear edema); assay: PMA-induced ear edema in mice; format: in vivo; conditions: topical 40 μg/ear, 30 min before and after PMA 5 μg/ear, 6 h
# Method: The NBD peptide was tested for its ability to inhibit inflammatory responses in animals using two distinct models of acute inflammation. In the first model, ear edema was induced in mice using phorbol-12-myristate-13-acetate (PMA) and the effects of topical administration of the NBD peptides were measured. Ear edema using PMA was induced in replicate groups of age and sex matched mice as previously described (Chang et al., (1987) Eur. J. Pharmacol. 142, 197-205). Twenty μl of either NBD peptides (200 μg/ear), dexamethasone (40 μg/ear) or vehicle (DMSO:Ethanol; 25:75 v/v) was applied topically to the right ear of mice thirty minutes before and thirty minutes after the application of 20 μl of PMA (5 μg/ear) dissolved in ethanol. Ear swelling was measured six hours after PMA application using a microgauge and expressed as the mean difference in thickness between the treated (right) and untreated (left) ears. Statistical analysis of the data was performed using the students t-test. A value of p<0.05 was considered statistically significant.
# [3] = molecular target: T1, NEMO (Homo sapiens, UniProt Q9Y6K9); assay: GST pull-down of IKKβ NBD mutants by GST-NEMO; format: binding; conditions: GST pulldown assay; NBD mutations in IKKβ
# T1 construct: bacterially expressed version of full length NEMO fused at its NH2-terminus to glutathione S-transferase; made in house; host or cells: bacteria (pGEX-4T1)
# T1 sequence (Q9Y6K9 whole entry, the tested form may be a part): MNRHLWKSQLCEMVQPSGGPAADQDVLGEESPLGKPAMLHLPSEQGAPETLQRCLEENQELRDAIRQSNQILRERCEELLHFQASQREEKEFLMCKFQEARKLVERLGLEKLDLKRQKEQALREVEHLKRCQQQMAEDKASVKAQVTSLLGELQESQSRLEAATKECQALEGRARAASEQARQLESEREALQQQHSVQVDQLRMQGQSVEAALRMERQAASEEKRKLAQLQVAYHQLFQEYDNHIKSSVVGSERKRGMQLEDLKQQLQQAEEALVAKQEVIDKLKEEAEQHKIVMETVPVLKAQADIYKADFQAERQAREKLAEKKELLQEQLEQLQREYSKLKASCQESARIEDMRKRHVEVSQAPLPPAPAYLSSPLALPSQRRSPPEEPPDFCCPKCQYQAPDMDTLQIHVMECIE
# From the text: To identify the NEMO-interacting domain of IKKβ we performed in vitro pull down assays (Zhong et al., (1997) Cell 89, 413-424) using a bacterially expressed version of full length NEMO fused at its NH2-terminus to glutathione S-transferase (GST-NEMO; FIG. 1A). Various truncation mutants lacking different functional domains of IKKβ (catalytic domain, leucine zipper and helix-loop-helix; FIG. 1A) were constructed.
# These mutants were labeled by in vitro translation with [^35S]-methionine (input; FIG. 1B), mixed with either GST alone or GST-NEMO, and precipitated using glutathione-agarose. […]
# Further mutations in the NBD were analyzed (see Table 1) for their ability to affect NEMO binding to IKKβ using the GST pulldown assay explained in Example 3.
# [4] = system: mice (lethal Salmonella typhimurium LPS challenge); assay: Lethal lipopolysaccharide mouse model; format: in vivo, male C57BL/6 mice
# Method: In this experiment, the ability of anti-inflammatory compounds of the invention to rescue mice challenged with a lethal amount of lipopolysaccharide (LPS) was assessed. LPS is a bacterial product that induces many of the responses that are seen in septic patients, including death. In this model, Salmonella typhimurium LPS in phosphate-buffered […] (PBS) was administered to male C57BL/6 mice by intravenous injection at a dose of 30 mg/kg (600 μg/20 g mouse). This dose was established in control experiments to be lethal in 100% of the mice that received it. Mice were treated with the test peptide by intravenous injection (in 1% dimethyl sulfoxide in PBS) immediately prior to the LPS injection and 24 hours after the LPS injection. Mice were monitored twice daily for up to 8 days after receiving LPS and the duration of survival and the number of surviving mice were recorded.
# [5] = system: mice (Concanavalin A-induced hepatitis); assay: Concanavalin A-induced hepatitis in mice; format: in vivo, male C57BL/6 mice; conditions: for ALT / AST: serum 18-24 h, mean±SEM
# Method: Forty male C57BL/6 mice weighing between 18 g and 22 g were divided into five treatment groups of eight mice each as shown below.
# The mice were placed in a restrainer and injected intravenously (i.v.) in the tail with a test peptide or vehicle in 1% DMSO in PBS. The mice were then immediately injected i.v. with 15 mg/kg of concanavalin A dissolved in sterile PBS. The injection volume was 5 ml/kg (100 μI/20 g mouse) with a concanavalin A concentration of 3.0 mg/ml. The next morning (18-24 hours later), these mice were euthanized by CO2 inhalation and blood was collected by cardiac puncture. The serum was then separated and analyzed for AST and ALT.
# ALT and AST values are given as Sigma-Frankel units/ml, mean±SEM.
# [6] = dose 1 mg/kg i.v., number dosed 8, LPS 30 mg/kg i.v.
# [7] = dose 5 mg/kg i.v., number dosed 8, LPS 30 mg/kg i.v.
# [8] = dose 5 mg/kg i.v., number dosed 7, LPS 30 mg/kg i.v.
# [9] = concanavalin A 15 mg/kg i.v. + 0.5 mg/kg i.v.
# [10] = concanavalin A 15 mg/kg i.v. + 1 mg/kg i.v.
# [11] = concanavalin A 15 mg/kg i.v. + 5 mg/kg i.v.
Molecule,Binds to NEMO [3],"survival (day five), number of mice surviving [4, 7]",also measured
C[C@@H]1C[C@H]2[C@@H]3CCC4=CC(=O)C=C[C@]4(C)[C@@]3(F)[C@@H](O)C[C@]2(C)[C@@]1(O)C(=O)CO [dexamethasone],–,–,reduction of NOX in peritoneal exudates [1]: 86±7%; inhibition of PMA-induced ear thickening [2]: 82%
ADWSWL,yes,–,–
H-RRMKWKKLDWSWL-NH2 [compound 6],–,7 and 5 and 4 and 8,"survival (day five), number of mice surviving [4, 6]: 0"
H-RRMKWKKTALDWSWLQTE-NH2 [compound 1],–,–,"survival (day five), number of mice surviving [4, 8]: 1"
H-YARAARRAARRLDWSWL-NH2 [compound 9],–,6 and 8,"survival (day five), number of mice surviving [4, 6]: 0"
H-YARAARRAARRTALDWSWLQTE-NH2 [compound 5],–,–,"survival (day five), number of mice surviving [4, 6]: 4"
H-YARKARRQARRTALDWSWLQTE-NH2 [compound 4],–,0,–
H-YGRKKRRQRRRLDWSWL-NH2 [compound 11],–,6,–
H-YGRKKRRQRRRTALDWSWLQTE-NH2 [compound 2],–,4,"survival (day five), number of mice surviving [4, 8]: 7"
H-rrmkwkkLDWSWL-NH2 (H-[dR][dR][dM][dK][dW][dK][dK]LDWSWL-NH2; SMILES CSCC[C@@H](NC(=O)[C@@H](CCCNC(=N)N)NC(=O)[C@H](N)CCCNC(=N)N)C(=O)N[C@H](CCCCN)C(=O)N[C@H](Cc1c[nH]c2ccccc12)C(=O)N[C@H](CCCCN)C(=O)N[C@H](CCCCN)C(=O)N[C@@H](CC(C)C)C(=O)N[C@@H](CC(=O)O)C(=O)N[C@@H](Cc1c[nH]c2ccccc12)C(=O)N[C@@H](CO)C(=O)N[C@@H](Cc1c[nH]c2ccccc12)C(=O)N[C@@H](CC(C)C)C(N)=O) [compound 7],–,8,–
H-rrrrrrrLDWSWL-NH2 (H-[dR][dR][dR][dR][dR][dR][dR]LDWSWL-NH2; SMILES CC(C)C[C@H](NC(=O)[C@H](Cc1c[nH]c2ccccc12)NC(=O)[C@H](CO)NC(=O)[C@H](Cc1c[nH]c2ccccc12)NC(=O)[C@H](CC(=O)O)NC(=O)[C@H](CC(C)C)NC(=O)[C@@H](CCCNC(=N)N)NC(=O)[C@@H](CCCNC(=N)N)NC(=O)[C@@H](CCCNC(=N)N)NC(=O)[C@@H](CCCNC(=N)N)NC(=O)[C@@H](CCCNC(=N)N)NC(=O)[C@@H](CCCNC(=N)N)NC(=O)[C@H](N)CCCNC(=N)N)C(N)=O) [compound 8],–,7 and 8,"survival (day five), number of mice surviving [4, 6]: 0"
H-rrrrrrrTALDWSWLQTE-NH2 (H-[dR][dR][dR][dR][dR][dR][dR]TALDWSWLQTE-NH2; SMILES CC(C)C[C@H](NC(=O)[C@H](C)NC(=O)[C@@H](NC(=O)[C@@H](CCCNC(=N)N)NC(=O)[C@@H](CCCNC(=N)N)NC(=O)[C@@H](CCCNC(=N)N)NC(=O)[C@@H](CCCNC(=N)N)NC(=O)[C@@H](CCCNC(=N)N)NC(=O)[C@@H](CCCNC(=N)N)NC(=O)[C@H](N)CCCNC(=N)N)[C@@H](C)O)C(=O)N[C@@H](CC(=O)O)C(=O)N[C@@H](Cc1c[nH]c2ccccc12)C(=O)N[C@@H](CO)C(=O)N[C@@H](Cc1c[nH]c2ccccc12)C(=O)N[C@@H](CC(C)C)C(=O)N[C@@H](CCC(N)=O)C(=O)N[C@H](C(=O)N[C@@H](CCC(=O)O)C(N)=O)[C@@H](C)O) [compound 3],–,5 and 8,"survival (day five), number of mice surviving [4, 8]: 7"
H-yaraarraarrLDWSWL-NH2 (H-[dY][dA][dR][dA][dA][dR][dR][dA][dA][dR][dR]LDWSWL-NH2; SMILES CC(C)C[C@H](NC(=O)[C@H](Cc1c[nH]c2ccccc12)NC(=O)[C@H](CO)NC(=O)[C@H](Cc1c[nH]c2ccccc12)NC(=O)[C@H](CC(=O)O)NC(=O)[C@H](CC(C)C)NC(=O)[C@@H](CCCNC(=N)N)NC(=O)[C@@H](CCCNC(=N)N)NC(=O)[C@@H](C)NC(=O)[C@@H](C)NC(=O)[C@@H](CCCNC(=N)N)NC(=O)[C@@H](CCCNC(=N)N)NC(=O)[C@@H](C)NC(=O)[C@@H](C)NC(=O)[C@@H](CCCNC(=N)N)NC(=O)[C@@H](C)NC(=O)[C@H](N)Cc1ccc(O)cc1)C(N)=O) [compound 10],–,8 and 6,"liver injury by concanavalin A, gross pathology ([5]; 5 mg/kg): prevented; protection against concanavalin A-induced liver damage ([5]; 5 mg/kg): able to protect; ALT [5, 9]: 1919 ± 234 Sigma-Frankel units/ml; AST [5, 9]: 1217 ± 192 Sigma-Frankel units/ml; ALT [5, 10]: 1910 ± 281 Sigma-Frankel units/ml; AST [5, 10]: 1264 ± 270 Sigma-Frankel units/ml; ALT [5, 11]: 72 ± 19 Sigma-Frankel units/ml; AST [5, 11]: 99 ± 14 Sigma-Frankel units/ml; survival (day five), number of mice surviving [4, 6]: 5"
LAWSWL (Description of Artificial Sequence: Synthetic NBD peptide),no,–,–
LDASAL (Description of Artificial Sequence: Synthetic NBD peptide),no,–,–
LDASWL (Description of Artificial Sequence: Synthetic NBD peptide),no,–,–
LDFSWL,yes,–,–
LDWAWL,yes,–,–
LDWEWL (Description of Artificial Sequence: Synthetic NBD peptide),yes,–,–
LDWSAL (Description of Artificial Sequence: Synthetic NBD peptide),no,–,–
LDWSFL (Description of Artificial Sequence: Synthetic NBD peptide),yes,–,–
LDWSWA (Description of Artificial Sequence: Synthetic NBD peptide),yes,–,–
LDWSWL (Description of Artificial Sequence: Synthetic NBD peptide),yes,–,–
LDWSYL (Description of Artificial Sequence: Synthetic NBD peptide),no,–,–
LDYSWL (Description of Artificial Sequence: Synthetic NBD peptide),yes,–,–
LEWSWL (Description of Artificial Sequence: Synthetic NBD peptide),yes,–,–
LNWSWL (Description of Artificial Sequence: Synthetic NBD peptide),yes,–,–
